Experimental data as given in article PMC8997165, “Transcriptional CDK Inhibitors as Potential Treatment Option for Testicular Germ Cell Tumors” (Cancers, 2022).
Each block holds one molecule with its values, some of them ahead of it.

How the values were obtained:
Assay type in all cases: cell-based, human
2102EP cells = assay: XTT cell viability assay, 2102EP
Procedure: (§1) The following cell lines were used 2102EP, 2102EP-R, NCCIT, NCCIT-R (all ECs), TCam2 (seminoma cell line), FS1 (Sertoli cell line) and MPAF (human adult fibroblast cell line). Cells were cultivated as described previously. In brief, the ECs were cultivated in Dulbecco’s modified Eagle’s medium (DMEM) supplemented with 10% fetal bovine serum (FBS), 1% penicillin–streptomycin and […] L-glutamine. FS1 cells were grown in DMEM supplemented with 20% FSB, 1% penicillin–streptomycin, 200 mM L-glutamine and 1% nonessential amino acids (NEAA). MPAF cells were cultured in DMEM supplemented with 10% FBS, 1% penicillin–streptomycin, 200 mM L-glutamine and 1% NEAA. TCam2 cell line was cultured in RPMI medium supplemented with 10% FBS, 1% penicillin–streptomycin and […] L-glutamine. All cell lines were kept at 37 °C and 7.5% CO2. 2102EP and NCCIT were a kind gift from Prof. Dr. L. Looijenga (Princess Máxima Center for Pediatric Oncology, Utrecht, The Netherlands). Cisplatin-resistant lines 2102EP-R and NCCIT-R were obtained from PD Dr. F. Honecker (Breast and Tumor Center, ZeTup Silberturm, St. Gallen, Switzerland). MPAFs were a kind gift from […] (Bonn University, Institute of Reconstructive Neurobiology, Bonn, Germany). FS1 cells were obtained from Prof. Dr. V. Schumacher (Boston Children’s Hospital, Department of Urology; Harvard Medical School, Department of Surgery, Boston, MA, USA).
(§2) The assay was performed based on the reduction in XTT tetrazolium salt as described previously. In summary, 3000 cells were seeded per well of a 96-well cell culture plate in 100 µL of cell culture medium. The next day, cells were treated with CDK inhibitor or CDK degrader for 24/48/72 h. For XTT assay, 0.6 mg/mL XTT sodium salt was dissolved in cell culture medium (DMEM or RPMI) and supplemented with 25 µM electron carrier N-methyl dibenzopyrazine methyl sulfate (PMS). A total of 50 µL of XTT/PMS was added to each well and incubated for 4 h at 37 °C, 7.5% CO2. For readout, absorption was measured at 450 nm and 650 nm. Specific XTT signal (450 nm) was subtracted by nonspecific absorbance (650) and blank (cell culture medium). Averages of technical triplicates were calculated, and treated sample was referenced to the corresponding dimethyl sufoxide (DMSO) control. Experiment was repeated several times to obtain biological replicates. For statistical analysis, two-tailed Student’s t-test was applied.

2102EP-R cells = assay: XTT cell viability assay, 2102EP-R (cisplatin-resistant)
Procedure: as §1, §2

NCCIT cells = assay: XTT cell viability assay, NCCIT
Procedure: as §1, §2

NCCIT-R cells = assay: XTT cell viability assay, NCCIT-R (cisplatin-resistant)
Procedure: as §1, §2

TCam2 cells = assay: XTT cell viability assay, TCam2
Procedure: as §1, §2

FS1 cells = assay: XTT cell viability assay, FS1 Sertoli control
Procedure: as §1, §2

MPAF cells = assay: XTT cell viability assay, MPAF fibroblast control; details: for IC50: XTT viability
Procedure: as §1, §2

TGCT cell lines = assay: XTT cell viability assay, summarised over TGCT tumor cell lines; details: Homo sapiens; 72 h, tumor (TGCT) cell lines, XTT viability; read-out: IC50 at 72 h, range over tumor cell lines
Procedure: as §1, §2

[1] = system: TGCT and control cell lines; assay: 7AAD/AnnexinV FACS apoptosis analysis, TGCT and control cell lines; details: 100 nM, 24 and 48 h
Procedure: (§3) Cells were seeded in 6-well cell culture plates (1.5 × 10^5 cells/well). […] For cell cycle analysis, cells were harvested after 20 h of treatment and resuspended in PBS. Ice-cold methanol was added dropwise while shaking until 70% methanol v/v was reached. Cells were incubated for 2 h at 4 °C and subsequently washed twice with cold PBS. Staining (2 µg/mL Hoechst-33342, 50 µg/mL RNaseA in PBS) was performed for 30 min at 37 °C. The cell cycle distribution was measured in an FACS Canto (BD BioSciences, Heidelberg, Germany) and analyzed using FlowJo™ v10.8 Software (BD BioSciences, Heidelberg, Germany). For apoptosis analysis, PE AnnexinV Apoptosis Detection Kit with 7-AAD (BioLegend, San Diego, CA USA) was used according to the manufacturer’s manual. Measurement was performed in an FACS Canto while analysis was performed in the corresponding BD FACSDiva software^TM (BD BioSciences, Heidelberg, Germany). Two-tailed Student’s t-test was applied for calculation of significance.

[2] = system: TGCT and control cell lines; assay: Hoechst-FACS cell cycle analysis; details: 20 h; NVP2 and SY0351 10 nM, YKL-5-124 and THZ531 100 nM
Procedure: as §3

Structure (SMILES): CN(C)C/C=C/C(=O)Nc1ccc(C(=O)Nc2cccc(Nc3ncc(Cl)c(-c4c[nH]c5ccccc45)n3)c2)cc1 [THZ1]
IC50 (2102EP cells; 24 h): 95.6 nM
IC50 (2102EP cells; 48 h): 26.3 nM
IC50 (2102EP cells; 72 h): 6.7 nM
IC50 (2102EP-R cells; 24 h): 235 nM
IC50 (2102EP-R cells; 48 h): 16.3 nM
IC50 (2102EP-R cells; 72 h): 9.9 nM
IC50 (NCCIT cells; 24 h): > 1000 nM
IC50 (NCCIT cells; 48 h): 92.9 nM
IC50 (NCCIT cells; 72 h): 9.3 nM
IC50 (NCCIT-R cells; 24 h): 929 nM
IC50 (NCCIT-R cells; 48 h): 145 nM
IC50 (NCCIT-R cells; 72 h): 16.2 nM
IC50 (TCam2 cells; TCam2, 24 h): > 1000 nM
IC50 (TCam2 cells; TCam2, 48 h): > 1000 nM
IC50 (TCam2 cells; TCam2, 72 h): 847 nM
IC50 (FS1 cells; FS1, 24 h): > 1000 nM
IC50 (FS1 cells; FS1, 48 h): > 1000 nM
IC50 (FS1 cells; FS1, 72 h): > 1000 nM
IC50 (MPAF cells; 24 h): > 1000 nM
IC50 (MPAF cells; 48 h): > 1000 nM
IC50 (MPAF cells; 72 h): > 1000 nM

IC50 (TGCT cell lines): 30 to 40 nM
Structure (SMILES): CC(C)(C)c1cnc(CSc2cnc(NC(=O)C3CCN(CC(=O)NCCOCCOCCOCCNc4cccc5c4C(=O)N(C4CCC(=O)NC4=O)C5=O)CC3)s2)o1 (stereo not drawn) [THAL-SNS-032]
IC50 (2102EP cells; Homo sapiens, 24 h): 164 nM
IC50 (2102EP cells; Homo sapiens, 48 h): 39.5 nM
IC50 (2102EP cells; Homo sapiens, 72 h): 34.8 nM
IC50 (NCCIT cells; Homo sapiens, 24 h): 149 nM
IC50 (NCCIT cells; Homo sapiens, 48 h): 50.6 nM
IC50 (NCCIT cells; Homo sapiens, 72 h): 30.1 nM
IC50 (TCam2 cells; Homo sapiens, TCam2, 24 h): 140 nM
IC50 (TCam2 cells; Homo sapiens, TCam2, 48 h): 76.7 nM
IC50 (TCam2 cells; Homo sapiens, TCam2, 72 h): 39.6 nM
IC50 (FS1 cells; Homo sapiens, FS1, 24 h): > 1000 nM
IC50 (FS1 cells; Homo sapiens, FS1, 48 h): > 1000 nM
IC50 (FS1 cells; Homo sapiens, FS1, 72 h): > 1000 nM
viability (XTT) (MPAF cells; 1 and 10 nM): not affected
viability (XTT) (MPAF cells; 100 and 500 nM): minimal decrease in viability
IC50 (MPAF cells; Homo sapiens, Fibroblast, 24 h): > 1000 nM
IC50 (MPAF cells; Homo sapiens, Fibroblast, 48 h): > 1000 nM
IC50 (MPAF cells; Homo sapiens, Fibroblast, 72 h): > 1000 nM

Structure (SMILES): CN(C)C/C=C/C(=O)Nc1ccc(C(=O)N2CCC[C@@H](Nc3ncc(Cl)c(-c4c[nH]c5ccccc45)n3)C2)cc1 [THZ531]
IC50 (2102EP cells; Homo sapiens, 24 h): > 1000 nM
IC50 (2102EP cells; Homo sapiens, 48 h): 180 nM
IC50 (2102EP cells; Homo sapiens, 72 h): 74.5 nM
IC50 (2102EP-R cells; Homo sapiens, 24 h): > 1000 nM
IC50 (2102EP-R cells; Homo sapiens, 48 h): 228 nM
IC50 (2102EP-R cells; Homo sapiens, 72 h): 164 nM
IC50 (NCCIT cells; Homo sapiens, 24 h): > 1000 nM
IC50 (NCCIT cells; Homo sapiens, 48 h): > 1000 nM
IC50 (NCCIT cells; Homo sapiens, 72 h): 96.6 nM
IC50 (NCCIT-R cells; Homo sapiens, 24 h): > 1000 nM
IC50 (NCCIT-R cells; Homo sapiens, 48 h): > 1000 nM
IC50 (NCCIT-R cells; Homo sapiens, 72 h): 137 nM
IC50 (TCam2 cells; Homo sapiens, TCam2, 24 h): > 1000 nM
IC50 (TCam2 cells; Homo sapiens, TCam2, 48 h): > 1000 nM
IC50 (TCam2 cells; Homo sapiens, TCam2, 72 h): > 1000 nM
IC50 (FS1 cells; Homo sapiens, FS1, 24 h): > 1000 nM
IC50 (FS1 cells; Homo sapiens, FS1, 48 h): > 1000 nM
IC50 (FS1 cells; Homo sapiens, FS1, 72 h): > 1000 nM
IC50 (MPAF cells; Homo sapiens, Fibroblast, 24 h): > 1000 nM
IC50 (MPAF cells; Homo sapiens, Fibroblast, 48 h): > 1000 nM
IC50 (MPAF cells; Homo sapiens, Fibroblast, 72 h): > 1000 nM
apoptosis induction ([1]; tumor cell lines): moderate increase in apoptosis induction
effect on cell cycle [2]: only mild effects on the cell cycle

Structure (SMILES): C=CC(=O)Nc1ccc(C(=O)Nc2[nH]nc3c2CN(C(=O)N[C@H](CN(C)C)c2ccccc2)C3(C)C)cc1 [YKL-5-124]
IC50 (2102EP cells; 24 h): 318 nM
IC50 (2102EP cells; 48 h): 43.6 nM
IC50 (2102EP cells; 72 h): 17.2 nM
IC50 (2102EP-R cells; 24 h): > 1000 nM
IC50 (2102EP-R cells; 48 h): 30.5 nM
IC50 (2102EP-R cells; 72 h): 23.6 nM
IC50 (NCCIT cells; 24 h): > 1000 nM
IC50 (NCCIT cells; 48 h): > 1000 nM
IC50 (NCCIT cells; 72 h): 121 nM
IC50 (NCCIT-R cells; 24 h): > 1000 nM
IC50 (NCCIT-R cells; 48 h): > 1000 nM
IC50 (NCCIT-R cells; 72 h): 178 nM
IC50 (TCam2 cells; TCam2, 24 h): > 1000 nM
IC50 (TCam2 cells; TCam2, 48 h): > 1000 nM
IC50 (TCam2 cells; TCam2, 72 h): 263 nM
IC50 (FS1 cells; FS1, 24 h): > 1000 nM
IC50 (FS1 cells; FS1, 48 h): > 1000 nM
IC50 (FS1 cells; FS1, 72 h): 95.2 nM
IC50 (MPAF cells; 24 h): > 1000 nM
IC50 (MPAF cells; 48 h): > 1000 nM
IC50 (MPAF cells; 72 h): > 1000 nM
viability (XTT) (MPAF cells; highest concentration tested (500 nM)): unaffected
apoptosis, fold change over DMSO control [1]: up to 2.8 fold
apoptosis, treatment vs control ([1]; FS1 and MPAF cells): almost no difference between treatment and control
effect on cell cycle [2]: only mild effects on the cell cycle
